In one assay the test system is rat osteoblasts. Briefly: Osteoblast proliferation, [3H]-thymidine incorporation. It is filed as cell-based. The note with it: versus vehicle control; for proliferation of rat osteoblasts, as measured by thymidine incorporation (FIG. 1): primary fetal rat calvarial osteoblasts, peptide 1×10^−9 M, 20-24 hours; for proliferation of rat osteoblasts, as measured by thymidine incorporation, parallel comparison (FIG. 4): various concentrations, compared in parallel. Here is the method: Osteoblasts were isolated from 20 day fetal rat calvariae as previously described (Cornish et al., American Journal of Physiology—Endocrinology & Metabolism 277: E779-E783, 1999). Briefly, calvariae were dissected aseptically and the frontal and parietal bones are stripped of their periosteum. Only the central portions of the bones, free from suture tissue, were collected. The calvariae were treated twice with phosphate buffered saline (PBS) containing 3 mM EDTA (pH 7.4) for 15 minutes at 37° C. in a shaking water bath. Calvariae were washed once in PBS and treated twice with 3 ml of collagenase (1 mg/ml) for 7 minutes at 37° C. After discarding supernatants from the first two collagenase digestions, calvariae were treated twice with 3 ml collagenase (2 mg/ml) for 30 minutes at 37° C. The supernatants from these third and fourth collagenase digestions were collected, pooled and centrifuged. The pelleted cells were washed in Dulbecco's modified Eagle's medium (DME) with 10% fetal calf serum (FCS), resuspended in DME/10% FCS, and placed in 75 cm^2 flasks. Cells were incubated under 5% CO2 and 95% air at 37° C. Cells were grown to confluence (approximately 5-6 days) and then subcultured.
To set up subcultures, cells were trypsinized in trypsin-EDTA (0.05%/0.53 mM), rinsed in minimal essential medium (MEM) with 5% FCS, resuspended in fresh medium, and seeded at 5×10^4 cells/ml in 24-well plates (0.5 ml cell suspension per well, i.e., 1.4×10^4 cells/cm^2).
To evaluate the proliferative responses of osteoblast cultures in the presence of preptin and various fragments of preptin, subconfluent cell cultures were growth arrested by incubation in MEM/0.1% bovine serum albumin 24 hours prior to addition of test compounds. Cells were cultured in the presence of full-length preptin (preptin 1-34), preptin 1-19, preptin 20-34, or in the absence of preptin compounds (control). Preptin compounds were added to a final concentration of 1×10^−9 M. A pulse of [^3H]-thymidine (1 […]) was added to each sample two hours prior to the end of each experimental incubation. The incubations were terminated 20-24 hours after addition of preptin compounds by washing the cells in MEM containing non-radioactive thymidine, followed by the addition of 10% trichloroacetic acid. The precipitate was washed twice either ethanol:ether (3:1) and the wells were desiccated at room temperature. The residue in each well was redissolved in 2 M KOH at 55° C. for 30 minutes, neutralized with 1 M HCl, and an aliquot was removed to quantitate incorporation of radioactivity in the samples. The results are depicted in FIG. 1. […] The results are representative of at least four independent assays.

Assay [1] concerns isolated, perfused rat pancreas. Particulars: infusion into isolated, Buchanan et al. 2001; cited from earlier work.

Turning to “Asp Val Ser Thr R1 R2 R3 Val Leu Pro Asp R4 Phe Pro Arg Tyr Pro Val Gly Lys Phe Phe R5 R6 Asp Thr Trp R7 Gln Ser R8 Rg Arg Leu [preptin 1-34, reference compound]”, the “proliferation of rat osteoblasts, as measured by thymidine incorporation (FIG. 1)” value in the assay on rat osteoblasts is given as “stimulated”. In assay [1], the insulin secretion entry is reported as “significant increase in the second phase of secretion”.
Turning to “Asp Val Ser Thr R1 R2 R3 Val Leu Pro Asp R4 Phe Pro Arg Tyr Pro Val Gly [preptin 1-19]”, in the assay with rat osteoblasts, the “proliferation of rat osteoblasts, as measured by thymidine incorporation (FIG. 1)” value was “enhances osteoblast proliferation in vitro, to levels comparable to those stimulated by full-length preptin” and the “proliferation of rat osteoblasts, as measured by thymidine incorporation, parallel comparison (FIG. 4)” value is “significant increase in proliferation at 1×10^−9M”.
On the same counts, the results for “preptin 20-34: a C-terminal fragment of preptin (KFFQYDTWKQSTQRL; Preptin; UniProt P01344 112-126, looked up, fragment) [reference compound]” are “No enhancement of osteoblast proliferation was observed” and “did not stimulate a significant increase in proliferation at any of the concentrations tested”.

The values above are taken from patent US20070173456A1, “PREPTIN FRAGMENTS AND METHODS OF USE” (Auckland UniServices Limited, priority 2005, published 2007).
